From patent US12343321B1, “Method for ameliorating or avoiding the adverse effects of exogenous gonadotropins on reproductive performance” (CHINA AGRICULTURAL UNIVERSITY, priority 2024, dated 2025)
Entries after “also recorded” stand apart in the source; their conditions may differ. Marks after values point to notes of the source that are not given here.

Tests used:
pERK = experiment: Molecular detection of pERK in mouse endometrium after eCG/hCG treatment; format: in vivo; details: day 4 after vaginal plug, NAC 200 mg/kg BW i.p. daily, BGJ398 100 μM, 5 μL via uterine horn, or NAC 100 + VA 100 mg/kg BW
Description: (§1) 2.2 Molecular Regulation Effect of N-Acetylcysteine in Combination with Vitamin A on Alleviating Uterine Receptivity Decrease Induced by Gonadotropin Treatments
(§2) In the animal experiment, ICR female mice (SPF grade, 8 weeks old, 28-30 g) were selected and randomized into groups of 10-18, including normal control group (CON), superovulation stimulation group (eCG/hCG), superovulation stimulation and BGJ398 group (eCG/hCG+BGJ398), superovulation stimulation and NAC single administration group (eCG/hCG+NAC), superovulation stimulation and VA single administration group (eCG/hCG+VA), superovulation stimulation and NAC and VA combined administration group (eCG/hCG+NAC+VA). The temperature of the breeding environment was 22° C., 12-h light/dark cycle was performed, and the mice were provided with free access to water and food. After the animals were purchased, they were acclimated for 5-7 days.
(§3) Control group (CON): A female 8-week-old ICR mouse was taken as the research object, subjected to natural estrus, mated with a vasoligated male mouse, and was taken as the control group. The uterus of the mouse was then separated on day 4 after the vaginal plug was observed, namely, when the uterine receptivity was established, and the detection of a plurality of signal molecules was carried out. […]

[1] = test system: ICR female mice treated with eCG/hCG; experiment: Embryo implantation sites after embryo transfer in gonadotropin-treated mice; format: in vivo, mouse; details: for number of implantation sites compared with control group (exogenous gonadotropin only): 12 embryos transferred on day 4, counted on day 5 of pregnancy, drugs 200 mg/kg BW total i.p. daily, BGJ398 100 μM via uterine horn; for effect on implantation and live birth, alone or in synergy with NAC/VA: 200 mg/kg BW alone, or 100 + 100 mg/kg BW with NAC/VA
Description: as §2
Superovulation stimulation and BGJ398 group (eCG/hCG+BGJ398): Female 8-week-old ICR mice were taken as the research object and injected with 10 IU eCG and […] to induce superovulation, respectively. On day 3 of pregnancy, the mice were injected with 5 μL of FGF receptor inhibitor containing 100 μM BGJ398 inhibitor through the uterine horn. Embryo transfer was then performed on day 4 after the vaginal plug was observed.
Superovulation stimulation and NAC single administration group (eCG/hCG+NAC): A female 8-week-old ICR mouse was taken as the research object. On the basis of the treatment of the superovulation stimulation group (eCG/hCG), each mouse was intraperitoneally injected with NAC at a dose of 200 mg/kg BW daily 5 days prior to the injection of eCG. Embryo transfer was then performed on day 4 after the vaginal plug was observed. The injection was continued until day 10 of pregnancy.
Superovulation stimulation and VA single administration group (eCG/hCG+VA): A female 8-week-old ICR mouse was taken as the research object. On the basis of the treatment of the superovulation stimulation group (eCG/hCG), each mouse was intraperitoneally injected with VA at a dose of 200 mg/kg BW daily 5 days prior to the injection of eCG/hCG. Embryo transfer was then performed on day 4 after the vaginal plug was observed. The injection was continued until day 10 of pregnancy.
Superovulation stimulation and NAC and VA combined administration group (eCG/hCG+NAC+VA): A female 8-week-old ICR mouse was taken as the research object. On the basis of the treatment of the superovulation stimulation group (eCG/hCG), each mouse was intraperitoneally injected with a mixture of NAC at a dose of 100 mg/kg BW and VA at a dose of 100 mg/kg BW daily 5 days prior to the injection of eCG. Embryo transfer was then performed on day 4 after the vaginal plug was observed. The injection was continued until day 10 of pregnancy.
The mice in the CON group, eCG/hCG group, eCG/hCG+BGJ398 group, eCG/hCG+NAC group, eCG/hCG+VA group, and eCG/hCG+NAC+VA group were separately in the same cage and mated with a vasoligated male mouse. The vaginal plug was checked at about 8 am in the next morning. The pseudopregnant female mouse whose vaginal plug was observed was ready for transfer. The day when the vaginal plug was observed was taken as day 1, and day 4 was the date of blastocyst transfer. […]
Embryo transfer was separately performed on the mice in the CON group, eCG/hCG group, eCG/hCG+BGJ398 group, eCG/hCG+NAC group, eCG/hCG+VA group, and eCG/hCG+NAC+VA group on day 4 of pregnancy; embryo implantation sites were counted by orbital injection of Chicago blue on day 5 of pregnancy. […]

[2] = test system: ICR female mice treated with eCG/hCG; experiment: Live birth after embryo transfer in gonadotropin-treated mice; format: in vivo; details: for live births compared with control group (exogenous gonadotropin only): 12 embryos transferred on day 4, counted on day of delivery, drugs 200 mg/kg BW total i.p. daily
Description: Superovulation stimulation and BGJ398 group (eCG/hCG+BGJ398): Female 8-week-old ICR mice were taken as the research object and injected with 10 IU eCG and PMSG to induce superovulation, respectively. On day 3 of pregnancy, the mice were injected with 5 μL of FGF receptor inhibitor containing 100 μM BGJ398 inhibitor through the uterine horn. Embryo transfer was then performed on day 4 after the vaginal plug was observed.
Embryo transfer was separately performed on the mice in the CON group, eCG/hCG group, eCG/hCG+BGJ398 group, eCG/hCG+NAC group, eCG/hCG+VA group, and eCG/hCG+NAC+VA group on day 4 of pregnancy, and the mice were then placed in the animal house for normal feeding. On the day of delivery, the number born alive index was counted. […]

Gilts = experiment: Reproductive performance of gilts in batch farrowing with FTAI (pregnancy rate, farrowing rate); format: in vivo, pig; details: for Estrus detection rate (%) / Farrowing rate (%) / Pregnancy Rate (%): batch farrowing with FTAI (eCG/GnRH), drugs in feed, 200 mg/kg BW total daily; for female pig farrowing rate compared with batch farrowing with FTAI (control group) / female pig pregnancy rate compared with batch farrowing with FTAI (control group): eCG/GnRH, result in words
Description: Gilts with the weight of 120-140 kg and the age of 200-250 days were selected for the experiment, which were divided into the batch farrowing with FTAI (CON) group, batch farrowing supplemented with NAC (NAC) group, batch farrowing supplemented with VA (VA) group, batch farrowing with combined administration of NAC and VA (NAC+VA 1:1) group, batch farrowing with combined administration of NAC and VA (NAC+VA […]) group, and batch farrowing with combined administration of NAC and VA (NAC+VA 9:1) group. Each group had 48-55 gilts.
The technical process of batch farrowing of the gilts in the CON group (namely the batch farrowing with FTAI scheme) was as follows: 1) estrus synchronization treatment: the gilt orally taken altrenogest for 18 days; 2) after an interval of 42 h after the estrus synchronization treatment, exogenous gonadotropin eCG was injected to induce follicular development synchronization; 3) after an interval of 80 h after eCG injection, an ovulatio induction drugs (GnRH) was injected. After an interval of 24 h after the injection, a first mating was carried out, and then after an interval of 16 h, a second mating was carried out. Pregnancy examination was then performed and the gilts were fed normally until delivery.
On the basis of the technical process of batch farrowing of the gilts in the CON group, in the NAC group, VA group, and NAC+VA group, NAC at a dose of 200 mg/kg BW, VA at a dose of 200 mg/kg BW, combined addition of NAC (100 mg/kg BW) and VA (100 mg/kg BW), combined addition of NAC (20 mg/kg BW) and VA (180 mg/kg BW), and combined addition of NAC (180 mg/kg BW) and VA (20 mg/kg BW) were separately added into the feed daily 14 days prior to the eCG injection until the end of first pregnancy examination (day 30-32 of pregnancy). The gilts were then fed normally until delivery.
The pregnancy rate of the female pigs was counted through pregnancy examination; the farrowing rate of the female pigs was counted during delivery. The pregnancy rate and the farrowing rate of female pigs from different treatment groups were calculated as follows: Female pig pregnancy rate=pregnant female pig count/mated female pig count×100% Female pig farrowing rate=delivery female pig count/mated female pig count×100%

ERα = experiment: Molecular detection of ERα in mouse endometrium after eCG/hCG treatment; format: in vivo; details: day 4 after vaginal plug, VA 200 mg/kg BW i.p. daily alone, or NAC 100 + VA 100 mg/kg BW
Description: as §1, §2, §3

CC(=O)N[C@@H](CS)C(=O)O [NAC, N-acetyl-L-cysteine]
excessive phosphorylation of pERK (exogenous gonadotropin-induced pERK overexpression) (pERK): significantly inhibit | number of implantation sites compared with control group (exogenous gonadotropin only) [1]: increased to some extent | live births compared with control group (exogenous gonadotropin only) [2]: increased to some extent | Estrus detection rate (%) (Gilts): 88.89% | Farrowing rate (%) (Gilts): 81.48^b % | Pregnancy Rate (%) (Gilts): 85.19^b % | female pig farrowing rate compared with batch farrowing with FTAI (control group) (Gilts): significantly improve | female pig pregnancy rate compared with batch farrowing with FTAI (control group) (Gilts): significantly improve

O=C1O[C@H]([C@@H](O)CO)C(O)=C1O [VC, vitamin C]
effect on implantation and live birth, alone or in synergy with NAC/VA [1]: do not work well

CCN1CCN(c2ccc(Nc3cc(N(C)C(=O)Nc4c(Cl)c(OC)cc(OC)c4Cl)ncn3)cc2)CC1 [BGJ398]
excessive phosphorylation of pERK (exogenous gonadotropin-induced pERK overexpression) (pERK): significantly inhibit | number of implantation sites compared with control group (exogenous gonadotropin only) [1]: significantly higher; also recorded: significantly increase | toxicity to fetal development after implantation ([2]; BGJ398 100 μM, 5 μL via uterine horn on day 3): highly toxic; also recorded: negatively affect fetal development; also recorded: fetus regressed

COc1ccc2[nH]cc(CCNC(C)=O)c2c1 [MT, melatonin]
effect on implantation and live birth, alone or in synergy with NAC/VA [1]: do not work well

CC1=C(/C=C/C(C)=C/C=C/C(C)=C/CO)C(C)(C)CCC1 [VA, vitamin A]
expression of ERα (exogenous gonadotropin-induced ERα overexpression) (ERα): significantly inhibits | number of implantation sites compared with control group (exogenous gonadotropin only) [1]: increased to some extent | live births compared with control group (exogenous gonadotropin only) [2]: increased to some extent | Estrus detection rate (%) (Gilts): 93.75% | Farrowing rate (%) (Gilts): 83.33^b % | Pregnancy Rate (%) (Gilts): 89.58^b % | female pig farrowing rate compared with batch farrowing with FTAI (control group) (Gilts): significantly improve | female pig pregnancy rate compared with batch farrowing with FTAI (control group) (Gilts): significantly improve
